ChEMBL document CHEMBL5154834, “Anti-neuroinflammatory effects of novel 5,6-dihydrobenzo[h]quinazolin-2-amine derivatives in lipopolysaccharide-stimulated BV2 microglial cells” (Eur J Med Chem, 2022)

Key:
[1] = system: BV-2; test: Anti-neuroinflammatory activity in mouse BV-2 cells assessed as inhibition of LPS-stimulated TNF-alpha production at 2.5 ug/ml measured after 24 hrs by ELISA; assay type: functional; design: scale not given: the % may be the effect or the level left; settings: dose 2.5 µg/ml
[2] = Cytotoxicity against mouse BV-2 cells assessed as survival rate at 2.5 ug/ml incubated for 24 hrs by MTT assay; assay type: toxicity, cell-based; settings: at 2.5 µg/mL, read-out: Activity
[3] = system: BV-2; test: Anti-neuroinflammatory activity in mouse BV-2 cells assessed as inhibition of LPS-stimulated IL-6 production at 2.5 ug/ml measured after 24 hrs by ELISA; assay type: functional; design: scale not given: the % may be the effect or the level left; settings: dose 2.5 µg/ml
[4] = system: BV-2; test: Anti-neuroinflammatory activity in mouse BV-2 cells assessed as reduction of LPS-stimulated IkappaBalpha phosphorylation level at 1.25 to 5 ug/ml and measured after 24 hrs by westernblot analysis; assay type: functional, cell-based; settings: dose 1.25-5 µg/ml, DDE = dose-dependent effect
[5] = system: BV-2; test: Neuroprotective activity against LPS-induced mouse BV-2 cell death assessed as late apoptotic cells at 5 uM and measured after 24 hrs by Annexin V-FITC/PI staining based flow cytometry method (reference value: 0%); assay type: functional
[6] = system: BV-2; test: Neuroprotective activity against LPS-induced mouse BV-2 cell death assessed as reversal of apoptosis at 2.5 uM and measured after 24 hrs by Annexin V-FITC/PI staining based flow cytometry method (reference value: 91.6%); assay type: functional
[7] = system: BV-2; test: Anti-neuroinflammatory activity in mouse BV-2 cells assessed as inhibition of LPS-induced NLRP3 expression level at 1.25 to 5 ug/ml and measured after 24 hrs by western blot analysis; assay type: functional, cell-based; settings: dose 1.25-5 µg/ml, DDE = dose-dependent effect
[8] = system: BV-2; test: Neuroprotective activity against LPS-induced mouse BV-2 cell death assessed as reversal of apoptosis at 5 uM and measured after 24 hrs by Annexin V-FITC/PI staining based flow cytometry method (reference value: 91.6%); assay type: functional
[9] = system: BV-2; test: Anti-neuroinflammatory activity in mouse BV-2 cells assessed as inhibition of LPS-induced ASC expression level at 1.25 to 5 ug/ml and measured after 24 hrs by western blot analysis; assay type: functional, cell-based; settings: dose 1.25-5 µg/ml, DDE = dose-dependent effect
[10] = system: BV-2; test: Neuroprotective activity against LPS-induced mouse BV-2 cell death assessed as late apoptotic cells at 2.5 uM and measured after 24 hrs by Annexin V-FITC/PI staining based flow cytometry method (reference value: 0%); assay type: functional
[11] = system: BV-2; test: Anti-neuroinflammatory activity in mouse BV-2 cells assessed as inhibition of LPS-induced caspase-1 expression level at 1.25 to 5 ug/ml and measured after 24 hrs by western blot analysis; assay type: functional, cell-based; settings: dose 1.25-5 µg/ml, DDE = dose-dependent effect

## COc1ccc2c(c1)C(=O)/C(=C/c1ccc(OC)cc1C(F)(F)F)CC2
[1]
  Activity: 40%
[2]
  viability at 24 h, 2.5 ug/ml: 88.3%
[3]
  Activity: 44.9%

## COc1cccc(-c2nc(N)nc3c2CCc2ccc(F)cc2-3)c1
[1]
  Activity: 53.8%
[2]
  viability at 24 h, 2.5 ug/ml: 95%
[3]
  Activity: 66.6%

## COc1ccc2c(c1)-c1nc(N)nc(-c3cccc(OC)n3)c1CC2
[1]
  Activity: 44.9%
[2]
  viability at 24 h, 2.5 ug/ml: 94.8%
[3]
  Activity: 44.1%

## COc1ccc2c(c1)-c1nc(N)nc(-c3ccc(OC)cc3C(F)(F)F)c1CC2
[1]
  Activity: 38.2%
[2]
  viability at 24 h, 2.5 ug/ml: 89.9%
[3]
  Activity: 54.3%

## COc1ccc2c(c1)C(=O)/C(=C/c1ccc(OC)nc1)CC2
[1]
  Activity: 23.8%
[2]
  viability at 24 h, 2.5 ug/ml: 93.1%
[3]
  Activity: 45%

## COc1cccc(/C=C2\CCc3ccc(F)cc3C2=O)c1
[1]
  Activity: 34%
[2]
  viability at 24 h, 2.5 ug/ml: 90.3%
[3]
  Activity: 35.2%

## COc1ccc(/C=C2\CCc3ccc(Br)cc3C2=O)cn1
[1]
  Activity: 32.5%
[2]
  viability at 24 h, 2.5 ug/ml: 89.5%
[3]
  Activity: 45.5%

## COc1cccc(/C=C2\CCc3ccc(Br)cc3C2=O)n1
[1]
  Activity: 31.9%
[2]
  viability at 24 h, 2.5 ug/ml: 94.7%
[3]
  Activity: 44.9%

## COc1cc(/C=C2\CCc3ccc(Br)cc3C2=O)cc(OC)c1OC
[1]
  Activity: 33.1%
[2]
  viability at 24 h, 2.5 ug/ml: 93.5%
[3]
  Activity: 35.9%

## COc1ccc(/C=C2\CCc3ccc(F)cc3C2=O)cn1
[1]
  Activity: 34.3%
[2]
  viability at 24 h, 2.5 ug/ml: 92.7%
[3]
  Activity: 47%

## COc1cncc(-c2nc(N)nc3c2CCc2ccc(F)cc2-3)c1
[4]
  Activity: Dde
[1]
  Activity: 60.8%
[2]
  viability at 24 h, 2.5 ug/ml: 97.4%
[5]
  Activity: 13%
[6]
  Activity: 54.8%
[7]
  Activity: Dde
[8]
  Activity: 70.7%
[9]
  Activity: Dde
[10]
  Activity: 30.7%
[3]
  Activity: 80.2%
[11]
  Activity: Dde

## COc1cncc(/C=C2\CCc3ccc(OC)cc3C2=O)c1
[1]
  Activity: 29.7%
[2]
  viability at 24 h, 2.5 ug/ml: 92.3%
[3]
  Activity: 43.7%

## COc1cncc(/C=C2\CCc3ccc(Br)cc3C2=O)c1
[1]
  Activity: 35.9%
[2]
  viability at 24 h, 2.5 ug/ml: 94.9%
[3]
  Activity: 47%

## COc1ccc(-c2nc(N)nc3c2CCc2ccc(F)cc2-3)cc1C(F)(F)F
[1]
  Activity: 42.4%
[2]
  viability at 24 h, 2.5 ug/ml: 91%
[3]
  Activity: 43%

## COc1ccc2c(c1)C(=O)/C(=C/c1ccc(OC)c(C(F)(F)F)c1)CC2
[1]
  Activity: 32.8%
[2]
  viability at 24 h, 2.5 ug/ml: 94.4%
[3]
  Activity: 44.4%

## COc1cncc(-c2nc(N)nc3c2CCc2ccc(OC)cc2-3)c1
[1]
  Activity: 47.3%
[2]
  viability at 24 h, 2.5 ug/ml: 94.7%
[3]
  Activity: 53.8%

## COc1ccc2c(c1)C(=O)/C(=C/c1cccc(OC)n1)CC2
[1]
  Activity: 40.6%
[2]
  viability at 24 h, 2.5 ug/ml: 90.4%
[3]
  Activity: 54%

## COc1cccc(/C=C2\CCc3ccc(F)cc3C2=O)n1
[1]
  Activity: 41.7%
[2]
  viability at 24 h, 2.5 ug/ml: 85.8%
[3]
  Activity: 61.1%

## COc1cc(/C=C2\CCc3ccc(F)cc3C2=O)cc(OC)c1
[1]
  Activity: 40.8%
[2]
  viability at 24 h, 2.5 ug/ml: 87.8%
[3]
  Activity: 46.1%

## COc1cncc(-c2nc(N)nc3c2CCc2ccc(Br)cc2-3)c1
[1]
  Activity: 49.4%
[2]
  viability at 24 h, 2.5 ug/ml: 93.2%
[3]
  Activity: 43.3%

## S=C(S)N1CCCC1 [PYRROLIDINE DITHIOCARBAMATE]
[1]
  Activity: 55.9%
[3]
  Activity: 64%

## COc1cc(OC)cc(-c2nc(N)nc3c2CCc2ccc(F)cc2-3)c1
[1]
  Activity: 45.3%
[2]
  viability at 24 h, 2.5 ug/ml: 95.4%
[3]
  Activity: 51.7%

## COc1ccc(-c2nc(N)nc3c2CCc2ccc(F)cc2-3)cn1
[1]
  Activity: 43.3%
[2]
  viability at 24 h, 2.5 ug/ml: 89.6%
[3]
  Activity: 43.9%

## COc1cccc(-c2nc(N)nc3c2CCc2ccc(Br)cc2-3)n1
[1]
  Activity: 44.8%
[2]
  viability at 24 h, 2.5 ug/ml: 88.9%
[3]
  Activity: 55.8%

## COc1ccc(/C=C2\CCc3ccc(F)cc3C2=O)cc1C(F)(F)F
[1]
  Activity: 38.6%
[2]
  viability at 24 h, 2.5 ug/ml: 94.7%
[3]
  Activity: 42.3%

## COc1ccc(-c2nc(N)nc3c2CCc2ccc(Br)cc2-3)cn1
[1]
  Activity: 43.8%
[2]
  viability at 24 h, 2.5 ug/ml: 95.4%
[3]
  Activity: 40.6%

## COc1cc(-c2nc(N)nc3c2CCc2ccc(Br)cc2-3)cc(OC)c1OC
[1]
  Activity: 39.9%
[2]
  viability at 24 h, 2.5 ug/ml: 93.1%
[3]
  Activity: 43.7%

## COc1cncc(/C=C2\CCc3ccc(F)cc3C2=O)c1
[1]
  Activity: 33.3%
[2]
  viability at 24 h, 2.5 ug/ml: 94.4%
[3]
  Activity: 46.4%

## COc1ccc2c(c1)-c1nc(N)nc(-c3ccc(OC)nc3)c1CC2
[1]
  Activity: 42.7%
[2]
  viability at 24 h, 2.5 ug/ml: 87.5%
[3]
  Activity: 43.7%

## COc1ccc2c(c1)-c1nc(N)nc(-c3ccc(OC)c(C(F)(F)F)c3)c1CC2
[1]
  Activity: 46.7%
[2]
  viability at 24 h, 2.5 ug/ml: 90.3%
[3]
  Activity: 44.2%

## COc1cccc(-c2nc(N)nc3c2CCc2ccc(F)cc2-3)n1
[1]
  Activity: 50.3%
[2]
  viability at 24 h, 2.5 ug/ml: 95.4%
[3]
  Activity: 66.9%
